What was measured:
CD8^+ T cells [1] = test: Cytosolic Ca2+ / lysosomal Ca2+ release in CD8+ T cells; format: cell-based, mouse; details: for increase in cytosolic Ca^2+ concentrations in CD8^+ T cells induced by LC: blocking calcium release from endoplasmic reticulum or mitochondria; for Ca^2+ release in lactic acid-treated CD8^+ T cells: increasing lysosomal pH value
Description: Next, we investigated the molecular mechanism by which LC activated TFEB in CD8^+ T cells. It has been reported (Nat Cell Biol. 2015 March;17(3):288-99) that in addition to being able to degrade exogenous or endogenous biomacromolecules, lysosomes, like endoplasmic reticulum and mitochondria, are also storage sites for Ca^2+ and can initiate the transduction of calcium-related downstream signals.
(§1) In order to better track the flow of H^+, ^2D (deuterium)-acetic acid (DAC) or ^2D-sulfuric acid (D2SO4) was added to the culture medium of CD8^+ T cells. […] The K-loop of V-ATPase is located in the hydrophobic lipid bilayer and is essential for the pumping of cytosolic H^+ into the lysosomal lumen. Li^+ has been reported to bind to the K-loop of V-ATPase in Enterococcus hirde and induce deprotonation of the Glul39 residue (J. Am. Chem. Soc. 2011.133. 2860-2863).

MCT1 = test: Localization of MCT1 to mitochondria (Western blot of isolated T cell mitochondria); format: cell-based, mouse; details: for expression / localization of MCT1 in mitochondria: Western blot of isolated T cell mitochondria
Description: The inventor further explored the molecular mechanism by which LC led to the shunting of lactic acid to mitochondria. Entry of lactic acid into mitochondria requires the localization of MCT1 to the inner mitochondrial membrane IMM (Redox Biol. 2020 August;35:101454). […] MCT1 is generally recognized as a secreted protein with an endoplasmic reticulum-targeting sequence that enters the endoplasmic reticulum and localizes to the plasma membrane. We hypothesized that LC could induce MCT1 variants with mitochondrial targeting sequences (MTSs). However, no MCT1 variant was found in LC-treated T cells by sequencing analysis, and only one transcript of MCT1 was found after alignment analysis on NCBI. A MTS was found at the N-terminus of MCT-1protein by protein sequence analysis, which was present downstream of the endoplasmic reticulum targeting sequence, forming a double-peak chimeric sequence. This double-peak sequence may direct MCT-1 to target the endoplasmic reticulum or mitochondria, and may be regulated by serine/threonine phosphorylation of PKA or PKC (Avadhani, N. G. 2011. FEBS J 278, 4218-4229).

lysosomal V-ATPase = test: Lysosomal pH, Atp6v0c, H+ (deuterium) flow and Li+ accumulation in CD8+ T cells; format: cell-based, mouse
Method: as §1

CD8^+ T cells [2] = test: Exogenous lactic acid on CD3/CD28-activated CD8+ T cells (flow cytometry, qPCR, ELISA, CTV); format: cell-based, C57BL/6J mouse; details: exogenous lactic acid at different concentrations, dose-dependent
Description: In order to further explore the effect of lactic acid on CD8^+ T cells, we used C57BL/6J mouse spleen-derived CD8^+ T cells to be activated by CD3/CD28 magnetic beads and stimulated by exogenous lactic acid at different concentrations.

CD8^+ T cells [3] = test: Entry and subcellular distribution of lactate and hydrogen ions in CD8+ T cells (lysosensor, LC-MS/MS); format: cell-based, mouse
Method: CD8^+ T cells were treated with exogenous hydrochloric acid (HCl) or sodium lactate (NaLa) as controls, and the entry of lactate and hydrogen ions into the cells was detected.
When exogenous lactic acid enters the cell, excess hydrogen ions are further transported to acidic organelles, such as lysosomes, in order to maintain the stability of the cytoplasmic pH values.

CD8^+ T cells [4] = test: Lactyl-CoA (LC-MS/MS) and histone lactylation (Western blot, anti-pan-Kla) in CD8+ T cells; format: cell-based, mouse; details: after treating CD8+ T cells with exogenous lactic acid
Description: We further investigated the effect of lactic acid distributed in the nucleus on the function of CD8^+ T cells. In 2019, Zhao […] team discovered a new type of histone epigenetic modification, lactylation modification (Kla), which can regulate the phenotype and function of macrophages (Nature. 2019 October: 574 (7779): 575-580). On this basis, we hypothesized that lactic acid entering the nucleus would lead to lactylation modification of histones, thereby regulating the function of CD8^+ T cells.

V-ATPase = test: V0C expression, V-ATPase activity and lysosomal pH in lactic acid-treated CD8+ T cells; format: cell-based, mouse
Method: In order to further elucidate the mechanism by which histone lactylation modification regulates T cell function, the downstream target genes regulated by histone lactylation modification were explored by using ChIP-Seq experiments, and the enrichment scores of genes corresponding to histone lactylation sites were calculated. […] ATP6V0C gene encodes the V0 subunit C protein in V-ATPase that plays a key role in pumping H^+, which is responsible for pumping cytosolic H^+ into the lysosomal lumen and thus maintaining the low pH value of lysosomes. […] Therefore, exogenous lactic acid results in lactylation of histones and thus up-regulating ATP6V0C expression and activity, thereby shunting cytosolic H^+ into lysosomes in response to cytosolic acid stress, but lysosomal acidification may inhibit the activity of CD8^+ T cells.

Molecule: O=C1CSC(c2ccccc2Cl)c2cc(Cl)ccc2N1 (stereo not drawn) [CGP37157]
- increase in cytosolic Ca^2+ concentrations in CD8^+ T cells induced by LC (CD8^+ T cells [1]): did not affect

Molecule: CCCCCCCCCCCCCC(=O)O[C@@H]1[C@@H](C)[C@@]2(O)[C@@H](C=C(CO)C[C@]3(O)C(=O)C(C)=C[C@@H]23)[C@@H]2C(C)(C)[C@]12OC(C)=O [PMA]
- expression / localization of MCT1 in mitochondria (MCT1): significantly increased

Molecule: CN1CCN(c2nc(C3=C(c4c[nH]c5ccccc45)C(=O)NC3=O)c3ccccc3n2)CC1 [Sotrastaurin]
- localization of MCT1 to mitochondria induced by LC (MCT1; kinase inhibitors added, results not shown): almost completely blocked

Molecule: CO/C1=C\C(C)=C\[C@@H](C)[C@@H](O)[C@@H](C)C/C(C)=C/C=C/[C@H](OC)[C@@H]([C@@H](C)[C@@H](O)[C@H](C)[C@@]2(O)C[C@@H](O)[C@H](C)[C@@H](C(C)C)O2)OC1=O [bafilomycin A1]
- Ca^2+ release (CD8^+ T cells [1]; LC-treated CD8+ T cells with bafilomycin A1): reduced
- Ca^2+ release in lactic acid-treated CD8^+ T cells (CD8^+ T cells [1]): promote
- entry of Li^+ into lysosomes (lysosomal V-ATPase; LC-treated CD8+ T cells): blocked

Molecule: CCN(CC)CCCC(C)Nc1ccnc2cc(Cl)ccc12 (stereo not drawn) [chloroquine]
- Ca^2+ release in lactic acid-treated CD8^+ T cells (CD8^+ T cells [1]): promote

Molecule: CC(O)C(=O)O (stereo not drawn) [lactic acid]
- activation of CD8^+ T cells (CD25 expression; gene and protein expression of IL-2, IFN-γ, TNF-α) (CD8^+ T cells [2]; CD3/CD28 magnetic beads): significantly inhibited
- apoptosis of CD8^+ T cells (CD8^+ T cells [2]): significantly promoted
- proliferation of CD8^+ T cells (CTV proliferation assay) (CD8^+ T cells [2]): significantly inhibited
- lysosome acidification (lysosensor staining) (CD8^+ T cells [3]): rapidly acidify lysosomes
- entry of lactate and hydrogen ions into the cells (CD8^+ T cells [3]; HCl or sodium lactate as controls): simultaneously transported into the cells
- content of lactyl-CoA (LC-MS/MS) (CD8^+ T cells [4]): significantly increased
- level of histone lactylation (Western blotting, anti-pan-Kla antibody) (CD8^+ T cells [4]): significantly increased
- activity of V-ATPase (V-ATPase; CD8+ T cells): significantly up-regulated
- protein expression of V0C (V-ATPase; CD8+ T cells): significantly up-regulated
- lysosomal pH value (V-ATPase; exogenous lactic acid, decreasing from 5.4): 4.4
- expression / localization of MCT1 in mitochondria (MCT1): significantly reduced
- expression of lysosome-related gene Atp6v0c (lysosomal V-ATPase): significantly up-regulated
- lactylation of the Atp6v0c gene (ChIP-seq) (lysosomal V-ATPase): high level of lactylation

Molecule: Ryanodine
- increase in cytosolic Ca^2+ concentrations in CD8^+ T cells induced by LC (CD8^+ T cells [1]): did not affect

From patent US20250276008A1, “USE OF LITHIUM-CONTAINING COMPOUNDS IN TREATMENT OF TUMORS” (Institute of Basic Medical Sciences Chinese Academy of …, priority 2023, published 2025)
